The values below come from patent publication US20230382928A1, “EUROPIUM(III) COMPLEXES AS PH SENSORS” (CISBIO BIOASSAYS, priority 2020, published 2023).

Data set [1] is described as follows: Excited state (emission) lifetime at different pH. The data set is classed as physicochemical.
Method: (§2) An emission lifetime value at each pH was obtained by plotting the decay of the emission lifetime over time and fitting the curve to a simple exponential decay model. The pKa values of the complexes were determined for the reversible protonation.
Data set [2] can be described thus: Quantum yield of europium complexes at different pH. The conditions noted are these: text gives the same values in %. Format: physicochemical. How it is done:
The properties of representative complexes of the invention (complexes 14, 18, 21, 78a, 78b, 88a, 88b, 93, 104) were investigated. The presence of the Boc-group was not predicted to alter these properties. The experiments were thus carried out with the Boc group for the functionalized complexes. […]
(§1) Traditionally, molar extinction coefficients, ε, are calculated using the Beer-Lambert equation and involve measuring the absorbance of a series of solutions of a complex at different known concentrations. A plot of absorbance at a particular wavelength against concentration allows determination of ε from the gradient of the linear correlation. The quantum yield (QY) of the complexes increases as the pH decreases. For complexes 78b, 88a, 88b and 93, the quantum yield at pH 8 is approaching 0 meaning that the complexes are therefore hardly emissive at physiological pH and conversely, these complexes are very bright at pH 4.

A short description of data set [3]: pKa determination from emission lifetime variation versus pH. The conditions noted are these: 295 K, I = 0.1M NaCl.
Method: as §2
Data set [4] can be described thus: Time-gated emission intensity, pH 4/pH 8 ratio. The data set is classed as physicochemical. The conditions noted are these: λem=613.5 nm. The source says:
Data was normalised for a 60 μs delay at pH 4.
Data were normalised for a 60-460 μs time window at pH 4. Measurements were taken in NH4CH3CO2 (pH 4 and 5), MES (pH 5.5, 6 and 6.5), HEPES (pH 7) and NH4HCO3 (pH 8) buffers (all 0.1 M with 0.1 M NaCl).
A benefit of the long-lived lifetime of emission for the lanthanides is the possibility of performing time-gated measurements. Further to this, as a result of the ‘switch-on’ nature of complex 18, the unprotonated and protonated forms differ in emission lifetime. These properties allow the unique opportunity to control, to some degree, the apparent pKa value as well as the relative degree of ‘switching-on’ of the probe by changing the time window. This aspect is illustrated in practice using appropriate buffers of different pH (in the presence of 0.1 M NaCl) in FIG. 28.
By measuring the emission intensity of the hypersensitive ΔJ=2 band at different pH with a longer delay time after excitation (FIG. 28 top), a shallower curve was obtained (a lower apparent pKa).
A summary of the ratios of emission intensity (at λem=613.5 nm) at pH 4 (sensor on) and pH 8 (sensor off), where the emission signal was measured between different time windows, for complex 18 is presented in Table 4.
The extent of the switch-on response of the complex may be quantified, for comparison purposes, as the ratio of the emission intensity at the maximum of the ΔJ=2 band at pH 4, when the sensor is fully switched ‘on’, and pH 8, when the sensor is effectively ‘off’.

A short description of data set [5]: Absorption spectra / molar extinction coefficient (Beer-Lambert). Format: physicochemical. How it is done:
The properties of representative complexes of the invention (complexes 14, 18, 21, 78a, 78b, 88a, 88b, 93, 104) were investigated. The presence of the Boc-group was not predicted to alter these properties. The experiments were thus carried out with the Boc group for the functionalized complexes. The absorption and emission spectra were recorded in a pH gradient (pH 4 to pH 10).
as §1
This could be useful as excitation at, or near, this wavelength would allow equal excitation of both the unprotonated and protonated complex, which exist in a pH-dependent equilibrium in solution. An isosbestic point was not observed for Complex 14.

For `CCN(CC)c1cc(C#Cc2cc(CN3CCN(Cc4cccc(P(C)(=O)[O-])n4)CCN(Cc4cc(C#Cc5ccc(OC)c(N(CC)CC)c5)cc(P(C)(=O)[O-])n4)CC3)nc(P(C)(=O)[O-])c2)ccc1OC.[Eu+3]` [Complex 18], the Excited state lifetime in data set [1] (pH 3) is 1 ms; in data set [1] (pH 4, listed as 18) it was 1 ms; in data set [1] (pH 4, listed as drawing 63), 1.00 ms; in data set [1] (pH 5), 0.96 ms; in data set [1] (pH 6), 0.78 ms; in data set [1] (pH 7), 0.47 ms. Besides, the Excited state lifetime in data set [1] (pH 8) and in data set [1] (pH 9) was 0.34 ms each time. In addition, the Q.Y. pH 4 in data set [2] (pH 4) amounted to 17.6%. For the same compound, in data set [2] (pH 8), the Q.Y. pH 8 is 0.2%. For the same compound, the pKa (commonly the negative logarithm of the acid dissociation constant) in data set [3] stood at 6.3. Besides, the figures for the “ratio of emission intensity pH 4/pH 8” value in data set [4] (time window 60-460 μs), in data set [4] (time window 1000-2000 μs) and in data set [4] (time window 1500-2500 μs) were 32, 227 and 465, respectively. In addition, in data set [5] (excitation wavelength), the “λexc (nm)” value was 328 nm. Moreover, in data set [5] (molar extinction coefficient at λexc), the “ε” value came out at 35000 M⁻¹ cm⁻¹.
